In US4575560A, “Insecticidal diaminoguanidine hydrazone compounds” (American Cyanamid Company, priority 1985, dated 1986):
Converted amounts (≈) assume the structure as drawn. Structures can show the parent of a compound that is named as a salt.

What was measured:
Southern Armyworm = assay: Southern armyworm test, third-instar larvae on treated Sieva lima bean leaves; format: in vivo, Spodoptera eridania (Cramer); details: for Mortality Rating Southern Armyworm: third-instar larvae; for LC50: Spodoptera eridania, read-out: LC50 Southern Armyworm; for LC50 Southern Armyworm: in vivo
How it was run: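 Sieva lima bean plants, primary leaves expanded to 1.91 cm, were dipped with agitation for three seconds in test material dissolved in 65% acetone, with further dilutions in acetone, then air-dried in a hood. A treated leaf was placed in a 9 cm petri dish on moist filter paper with 10 third-instar Spodoptera eridania larvae about 1 cm long. Dishes were covered and kept at 80° F. and 50% r.h. Mortality and feeding were assessed after two days.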

Tobacco Budworm = assay: Tobacco budworm LC50 and FD50 (instar not stated); format: in vivo, Heliothis virescens (Fabricus); details: Heliothis virescens; read-out: LC50 Tobacco Budworm
Description: (§1) Test formulations and procedures used for evaluation are as follows:
FD50 = The concentration of insecticide required to reduce insect

[1] = tested on: Tobacco Budworm 3rd Instar; assay: Tobacco budworm secondary test, third-instar larvae on treated cotton cotyledons; format: in vivo, Heliothis virescens (Fabricus)
Method: Three cotton plants with just expanded cotyledons are dipped in 1000 ppm solution and placed in the hood to dry. When dry, each cotyledon is cut in half, and 10 are each placed in a 28 g plastic medicine cup containing a 1.25 cm dental wick saturated with water, and one third-instar budworm larva is added. The cup is capped and held for three days at 80° F., 50% relative humidity, after which mortality counts are made.

[2] = tested on: Tobacco Budworm 1st Instar; assay: Tobacco budworm initial test, treated eggs / newly hatched (1st instar) larvae on treated cotton leaves; format: in vivo, Heliothis virescens (Fabricus)
Method: as §1
A. 100 mg of the test material is weighed, placed in a funnel over a 113 g narrow-mouth bottle, rinsed into the bottle with a 35 mL scoop of acetone, followed by a 35 mL scoop of water and another 35 mL scoop of acetone to yield 1000 ppm in 65% acetone. If the material is not soluble, it is broken up with a glass rod and used as a suspension.
B. This stock solution ("A") is used to make 300 ppm solutions or suspensions by pipetting 30 mL of "A" into a bottle containing 70 mL of 50% acetone to yield 300 ppm. Further dilutions in 50% acetone are made as required.
C. Tests requiring 10 ppm acetone solutions: 1 mL of "A" is pipetted into 99 mL of acetone to yield 10 ppm. Additional dilutions are made using 50% acetone as required.
Tobacco Budworm--Heliothis virescens (Fabricus)
A cotton plant with two true leaves expanded is dipped for three seconds with agitation in 300 ppm solution. A 1.27 to 1.91 cm square of cheesecloth with about 50 to 100 budworm eggs 0-24 hours old is also dipped in the test solution and placed on a leaf of the cotton plant, all being placed in the hood to dry. The leaf with the treated budworm eggs is removed from the plant and placed in a 226 g Dixie cup with a wet 5 cm piece of dental wick and covered with a lid. The other leaf is placed in a similar cup with a wick and a piece of cheesecloth infested with 50-100 newly hatched larvae is added before covering the cup with a lid. After three days at 80° F., 50% relative humidity, observations of egg hatch are made, as well as kill of newly hatched larvae, any inhibition of feeding, or interference of any sort with normal development.

Row | SMILES | Mortality Rating Southern Armyworm (Southern Armyworm; 10 ppm) | Mortality Rating Southern Armyworm (Southern Armyworm; 100 ppm) | Mortality Rating Southern Armyworm (Southern Armyworm; 1000 ppm) | LC50 (Southern Armyworm) [µg/mL] | LC50 Southern Armyworm (Southern Armyworm) [ppm] | LC50 (Tobacco Budworm) [µg/mL] | Mortality Rating Tobacco Budworm 3rd Instar ([1]; 10 ppm) | Mortality Rating Tobacco Budworm 3rd Instar ([1]; 100 ppm) | Mortality Rating Tobacco Budworm 3rd Instar ([1]; 1000 ppm) | Mortality Rating Tobacco Budworm 1st Instar ([2]; 300 ppm) | reduced feeding (R) Tobacco Budworm 3rd Instar ([1]; 100 ppm) | reduced feeding (R) Tobacco Budworm 3rd Instar ([1]; 1000 ppm) | Mortality Rating Tobacco Budworm 1st Instar ([2]; 10 ppm) | Mortality Rating Tobacco Budworm 1st Instar ([2]; 100 ppm) | reduced feeding (R) Tobacco Budworm 1st Instar ([2]; 100 ppm) | reduced feeding (R) Southern Armyworm (Southern Armyworm; 100 ppm)
1 | N=C(NN=Cc1ccc(C(F)(F)F)cc1)N(N=Cc1ccc(C(F)(F)F)cc1)C(=O)N1CCCC1 [CF3 / CF3 / (CH2)4] | 9 (100%) | 9 (100%) | 9 (100%) | 18 (≈ 36.1 µM) | 14 | 1000 (≈ 2010 µM) | 0 (No effect) | 4 (46-55%) | 9 (100%) | – | – | – | – | – | – | –
2 | CC(C)OC(=O)N(N=Cc1ccc(C(F)(F)F)cc1)C(=N)NN=Cc1ccc(C(F)(F)F)cc1 [CF3 / CF3 / -i-C3 H7] | 9 (100%) | 9 (100%) | 9 (100%) | – | – | – | – | 0 (No effect) | 3 (36-45%) | 0 (No effect) | R | R | – | – | – | –
3 | CC(C)COC(=O)N(N=Cc1ccc(C(F)(F)F)cc1)C(=N)NN=Cc1ccc(C(F)(F)F)cc1 [CF3 / CF3 / -i-C4 H9] | – | 0 (No effect) | 9 (100%) | – | – | – | – | – | 0 (No effect) | 0 (No effect) | – | – | – | – | – | –
4 | CCN(CC)C(=O)N(N=Cc1ccc(C(F)(F)F)cc1)C(=N)NN=Cc1ccc(C(F)(F)F)cc1 [CF3 / CF3 / C2 H5 / C2 H5] | 7 (76-85%) | 9 (100%) | 9 (100%) | 8 (≈ 16 µM) | 12 | – | – | – | 4 (46-55%) | 0 (No effect) | – | – | – | – | – | –
5 | CCNC(=O)N(N=Cc1ccc(C(F)(F)F)cc1)C(=N)NN=Cc1ccc(C(F)(F)F)cc1 [CF3 / CF3 / C2 H5 / H] | – | 0 (No effect) | 9 (100%) | – | – | – | – | – | 0 (No effect) | 0 (No effect) | – | – | – | – | – | –
6 | CN(C)C(=O)N(N=Cc1ccc(C(F)(F)F)cc1)C(=N)NN=Cc1ccc(C(F)(F)F)cc1 [CF3 / CF3 / CH3 / CH3] | 8 (86-99%) | 9 (100%) | 9 (100%) | 15 (≈ 31.8 µM) | – | 96 (≈ 203 µM) | 0 (No effect) | 9 (100%) | 9 (100%) | 8 (86-99%) | – | – | 0 (No effect) | 6 (66-75%) | – | –
7 | CNC(=O)N(N=Cc1ccc(C(F)(F)F)cc1)C(=N)NN=Cc1ccc(C(F)(F)F)cc1 [CF3 / CF3 / CH3 / H] | 1 (11-25%) | 9 (100%) | 9 (100%) | 5 (≈ 10.9 µM) | – | – | – | – | 6 (66-75%) | 8 (86-99%) | – | – | – | 0 (No effect) | – | –
8 | N=C(NN=Cc1ccc(C(F)(F)F)cc1)N(N=Cc1ccc(C(F)(F)F)cc1)C(=O)OCc1ccccc1 [CF3 / CF3 / drawing 59] | – | 0 (No effect) | 9 (100%) | – | – | – | – | – | 0 (No effect) | 0 (No effect) | – | – | – | – | – | –
9 | N=C(NN=Cc1ccc(C(F)(F)F)cc1)NN=Cc1ccc(C(F)(F)F)cc1 [CF3 / HCl] | 0 (No effect) | 9 (100%) | 9 (100%) | – | – | – | – | 0 (No effect) | 5 (56-65%) | 9 (100%) | R | – | 0 (No effect) | 0 (No effect) | R | –
10 | CN(C)C(=O)N(N=Cc1ccc(OC(F)(F)F)cc1)C(=N)NN=Cc1ccc(OC(F)(F)F)cc1 [CF3 O / CF3 O / CH3 / CH3] | 9 (100%) | 9 (100%) | 9 (100%) | – | – | 77 (≈ 153 µM) | – | 3 (36-45%) | 9 (100%) | – | – | – | – | – | – | –
11 | N=C(NN=Cc1ccc(Cl)cc1)NN=Cc1ccc(Cl)cc1 [Cl / Base] | 0 (No effect) | 0 (No effect) | 9 (100%) | – | – | – | – | – | 0 (No effect) | 5 (56-65%) | – | – | – | – | – | –
12 | N=C(NN=Cc1ccc(Cl)cc1)NN=Cc1ccc(Br)cc1 [Cl / Br / HCl] | – | 2 (26-35%) | 9 (100%) | – | – | – | – | – | 0 (No effect) | 0 (No effect) | – | – | – | – | – | R
13 | CN(C)C(=O)N(N=Cc1ccc(Cl)cc1)C(=N)NN=Cc1ccc(Cl)cc1 [Cl / Cl / CH3 / CH3] | – | 0 (No effect) | 9 (100%) | – | – | – | – | 0 (No effect) | 0 (No effect) | 0 (No effect) | – | – | – | – | – | –
14 | N=C(NN=Cc1ccc(F)cc1)NN=Cc1ccc(F)cc1 [F / B] | – | 2 (26-35%) | 9 (100%) | – | – | – | – | – | 3 (36-45%) | 0 (No effect) | – | – | – | 0 (No effect) | – | –
15 | CN(C)C(=O)N(N=Cc1ccc(OC(F)(F)C(Cl)Cl)cc1)C(=N)NN=Cc1ccc(OC(F)(F)C(Cl)Cl)cc1 [HCCl2 CF2 O / HCCl2 CF2 O / CH3 / CH3] | – | 9 (100%) | 9 (100%) | 26 (≈ 41 µM) | – | 140 (≈ 221 µM) | – | 2 (26-35%) | 0 (No effect) | – | – | – | – | – | – | –
16 | N=C(NN=Cc1ccc(OC(F)(F)C(F)F)cc1)NN=Cc1ccc(OC(F)(F)C(F)F)cc1 [HCF2 CF2 O / B, 1,3-bis{[p-(tetrafluoroethoxy)benzylidene]-amino}guanidine] | 0 (No effect) | 9 (100%) | 9 (100%) | – | – | – | – | 0 (No effect) | 9 (100%) | 9 (100%) | – | – | – | 0 (No effect) | R | –
17 | N=C(NN=Cc1ccc(OC(F)F)cc1)NN=Cc1ccc(OC(F)F)cc1 [HCF2 O / B] | 0 (No effect) | 6 (66-75%) | 9 (100%) | – | – | – | – | – | 0 (No effect) | 0 (No effect) | – | – | – | – | – | –
18 | CN(C)C(=O)N(N=Cc1ccc(OC(F)F)cc1)C(=N)NN=Cc1ccc(OC(F)F)cc1 [HCF2 O / HCF2 O / CH3 / CH3] | 0 (No effect) | 9 (100%) | 9 (100%) | 75 (≈ 160 µM) | – | – | – | – | 0 (No effect) | 0 (No effect) | – | – | – | – | – | –
19 | CNC(=O)N(N=Cc1ccc(OC(F)F)cc1)C(=N)NN=Cc1ccc(OC(F)F)cc1 [HCF2 O / HCF2 O / CH3 / H] | – | 0 (No effect) | 9 (100%) | – | – | – | – | – | 0 (No effect) | 7 (76-85%) | – | – | – | – | – | –
20 | N=C(NN=Cc1ccc(OC(F)F)cc1)NN=Cc1ccc(OC(F)F)cc1 [HCF2 O / S] | 0 (No effect) | 8 (86-99%) | 9 (100%) | – | – | – | – | – | 0 (No effect) | 0 (No effect) | – | – | – | – | – | –
21 | CN(C)C(=O)N(N=Cc1ccc(OC(F)(F)C(F)Cl)cc1)C(=N)NN=Cc1ccc(OC(F)(F)C(F)Cl)cc1 (centres unmarked) [drawing 40 / drawing 41 / CH3 / CH3] | 9 (100%) | 9 (100%) | 9 (100%) | – | – | 201 (≈ 334 µM) | 0 (No effect) | 4 (46-55%) | 9 (100%) | – | – | – | – | – | – | –
